Test results: US20160339080A1, “METHODS AND PHARMACEUTICAL COMPOSITIONS FOR THE TREATMENT OF HEPATOCELLULAR CARCINOMAS” (INSERM (INSTITUT NATIONAL DE LA SANTÉ ET DE LA RECHERCHE …, priority 2014, published 2016)

Test system: SK-HEP-1 cells
Experiment: SK-HEP-1 cell growth (trypan blue-excluding adherent cells counted) and apoptosis
Assay type: cell-based, human
Conditions: NSC-87877 50 μM with 1 μM orexin-A, 48 h
Description: FIG. 1. […] SK-HEP-1 cells were challenged with (black) or without (white) 1 μM orexin-A for 48 h in the absence (wo) or presence of NSC-87877 (50 μM). At the end of the treatment, adherent cells were trypsinized, and cells excluding trypan blue were counted to measure SK-HEP-1 cell growth. Panel B : Effect of orexin-A inoculation on the growth of tumors developed by xenografting human HCC cancer cells SK-HEP-1 in nude mice. SK-HEP-1 cells were inoculated in the flank of nude mice at day 0. Mice were 2 times a week injected intraperitoneally with 100 μL of orexin-A (0,23 μmol/kg) solutions starting at day 0 (white circle) or day 22 (triangle) or with […] of PBS (black circle) for controls.
Orexins are hypothalamic peptides involved in sleep/wake control. We have shown that orexins promote robust apoptosis in colorectal cancer cells (Voisin T, El Firar A, Fasseu M, Rouyer-Fessard C, Descatoire V, Walker F, Paradis V, Bedossa P, Henin D, Lehy T, Laburthe M. (2011) Aberrant expression of OX1 receptors for orexins in colon cancers and liver metastases: an openable gate to apoptosis. Cancer Res. 71:3341-51.). […]

SMILES: O=S(=O)(O)c1ccc2cc(N=Nc3cc(S(=O)(=O)O)c4cccnc4c3O)ccc2c1 [NSC-87877]
- block of orexin-induced SK-HEP-1 growth inhibition: blocks orexin-induced SK-HEP-1 growth inhibitory
- reversal of orexin-induced apoptosis: reverse orexin-induced apoptosis
